Molecules are shown by their SMILES.

For this data set the following is noted: instrument: TW, calibrated with polyalanine and drug standards.

For `Nc1ccncc1` [FAMPRIDINE], where the note is “[M+H]+”, the “collision cross section (N2)” value worked out at 117.8 Å².

Regarding `CC(C)OC(=O)C(C)(C)Oc1ccc(C(=O)c2ccc(Cl)cc2)cc1` [FENOFIBRATE], for the setting “[M+H]+”, the “collision cross section (N2)” value is on record as 190.5 Å².

As to `CC1=C(/C=C/C(C)=C/C=C/C(C)=C/C(=O)Nc2ccc(O)cc2)C(C)(C)CCC1` [FENRETINIDE], the “collision cross section (N2)” value ([M+H]+) worked out at 200.5 Å². In the case of `CCC(=O)c1c(O)cc(O)cc1O` [FLOPROPIONE], the “collision cross section (N2)” value ([M+H]+) stood at 134.3 Å².

Consider `CS(=O)(=O)c1ccc([C@@H](O)[C@@H](CF)NC(=O)C(Cl)Cl)cc1` [FLORFENICOL], for which the “collision cross section (N2)” value ([M+Na]+) turned out to be 170.7 Å².

As to `CC1CCc2cc(F)cc3c(=O)c(C(=O)O)cn1c23` (stereo unspecified) [FLUMEQUINE], where the note is “[M+H]+”, the “collision cross section (N2)” value amounted to 149.8 Å². On to `C[C@@H]1C[C@H]2[C@@H]3C[C@H](F)C4=CC(=O)C=C[C@]4(C)[C@@]3(F)[C@@H](O)C[C@]2(C)[C@@]1(O)C(=O)CO` [FLUMETHASONE], for which, under “[M+H]+”, the “collision cross section (N2)” value stood at 189.2 Å².

For `CC1(C)O[C@@H]2C[C@H]3[C@@H]4C[C@H](F)C5=CC(=O)C=C[C@]5(C)[C@@]4(F)[C@@H](O)C[C@]3(C)[C@]2(C(=O)CO)O1` [FLUOCINOLONE ACETONIDE], the “collision cross section (N2)” value ([M+H]+) is given as 199.7 Å². On the same count and under the same terms, as for `CC(=O)OCC(=O)[C@@]12OC(C)(C)O[C@@H]1C[C@H]1[C@@H]3C[C@H](F)C4=CC(=O)C=C[C@]4(C)[C@@]3(F)[C@@H](O)C[C@@]12C` [FLUOCINONIDE], the figure is 229.9 Å²; as for `O=C1OC2(c3ccc(O)cc3Oc3cc(O)ccc32)c2ccccc21` [FLUORESCEIN], 172.3 Å²; as for `CNCCC(Oc1ccc(C(F)(F)F)cc1)c1ccccc1` (stereo unspecified) [FLUOXETINE], 174.5 Å².

For `CC1(C)O[C@@H]2C[C@H]3[C@@H]4C[C@H](F)C5=CC(=O)CC[C@]5(C)[C@H]4[C@@H](O)C[C@]3(C)[C@]2(C(=O)CO)O1` [FLURANDRENOLIDE], the “collision cross section (N2)” value ([M+H]+) amounted to 201.2 Å². As to `CC(C)n1c(/C=C/[C@@H](O)C[C@@H](O)CC(=O)O)c(-c2ccc(F)cc2)c2ccccc21` [FLUVASTATIN], the “collision cross section (N2)” value ([M+H]+) came to 200.6 Å². As to `Nc1nc(=O)c2nc(CNc3ccc(C(=O)N[C@@H](CCC(=O)O)C(=O)O)cc3)cnc2[nH]1` [FOLIC ACID], where the note is “[M+H]+”, the “collision cross section (N2)” value turned out to be 196.8 Å².

For `CC(=O)O[C@H]1C[C@@]2(C)[C@@H](C[C@@H](O)[C@H]3[C@@]4(C)CC[C@@H](O)[C@@H](C)[C@@H]4CC[C@@]32C)/C1=C(\CCC=C(C)C)C(=O)O` [FUSIDIC ACID], the “collision cross section (N2)” value ([M+Na]+) is recorded as 235.6 Å². As for `NCC1(CC(=O)O)CCCCC1` [GABAPENTIN], the “collision cross section (N2)” value ([M+H]+) is listed as 138.6 Å². With `CC(C)=CCCC1(C)C=Cc2c(O)c3c(c(CC=C(C)C)c2O1)OC12C(=CCCC1C(C)(C)O[C@@]2(C/C=C(\C)C(=O)O)C(=O)O)C3=O` (stereo partly specified) [GARCINOLIC ACID], the “collision cross section (N2)” value ([M+H]+) was 245.7 Å².

Take `CC(=O)O[C@@H]1C[C@H]2C(C)(C)C(=O)C=C[C@]2(C)[C@H]2CC[C@@]3(C)[C@H](c4ccoc4)OC(=O)[C@H]4O[C@]43[C@@]21C` [GEDUNIN]: the “collision cross section (N2)” value ([M+H]+) worked out at 205.7 Å². As for `O=c1c(-c2ccc(O)cc2)coc2cc(O)cc(O)c12` [GENISTEIN], where the note is “[M+H]+”, the “collision cross section (N2)” value turned out to be 156.5 Å². For the molecule `O=C(OCC(O)CO)c1ccccc1Nc1ccnc2cc(Cl)ccc12` (stereo unspecified) [GLAFENINE], where the note is “[M+H]+”, the “collision cross section (N2)” value is given as 187.3 Å². Take `Cc1cnc(C(=O)NCCc2ccc(S(=O)(=O)NC(=O)NC3CCCCC3)cc2)cn1` [GLIPIZIDE]: where the note is “[M+H]+”, the “collision cross section (N2)” value was 196.5 Å². For `COc1ccc2c(c1)=NC1=C(C)NCCC=21` [HARMALINE], where the note is “[M+H]+”, the “collision cross section (N2)” value is listed as 146.2 Å².

For the molecule `CC(=O)O[C@H]1CC[C@@]2(C)[C@@H](CC[C@@H]3[C@@H]2CC(=O)[C@]2(C)[C@@H]4[C@H](C[C@@H]32)O[C@]2(CC[C@@H](C)CO2)[C@H]4C)C1` [HECOGENIN ACETATE], where the note is “[M+H]+”, the “collision cross section (N2)” value worked out at 223.4 Å².

Consider `C[C@@H]1O[C@@H](O[C@H]2[C@H](O[C@H]3CC[C@@]4(C)[C@@H](CC[C@]5(C)[C@@H]4CC=C4[C@@H]6CC(C)(C)CC[C@]6(C(=O)O[C@@H]6O[C@H](CO[C@@H]7O[C@H](CO)[C@@H](O[C@@H]8O[C@@H](C)[C@H](O)[C@@H](O)[C@H]8O)[C@H](O)[C@H]7O)[C@@H](O)[C@H](O)[C@H]6O)CC[C@]45C)[C@]3(C)CO)OC[C@H](O)[C@@H]2O)[C@H](O)[C@H](O)[C@H]1O` [HEDERACOSIDE C], for which the “collision cross section (N2)” value ([M+H]+) is reported as 349.1 Å². The same measure, in the same setting: as for `C=C1C(=O)O[C@@H]2C[C@@]3(C)CCC[C@H](C)C3=C[C@H]12` [HELENINE], the figure is 149.5 Å². Consider `O=C1C=C2CC3(O)COc4c(ccc(O)c4O)C3=C2C=C1O` (stereo unspecified) [HEMATEIN], for which the “collision cross section (N2)” value ([M+H]+) was 162.5 Å². With `O=c1cc(-c2cc(O)c(O)c(O)c2)oc2cc(O)cc(O)c12` [HIERACIN], where the note is “[M+H]+”, the “collision cross section (N2)” value is 163.4 Å². `C/C=C1\[C@H]2C=C(C)C[C@]1(N)c1ccc(=O)[nH]c1C2` [HUPERZINE A]: the “collision cross section (N2)” value ([M+H]+) is given as 157.7 Å². For the molecule `COc1ccc2c(c1OC)C(=O)O[C@@H]2[C@H]1c2cc3c(cc2CCN1C)OCO3` [HYDRASTINE (1R, 9S)], the “collision cross section (N2)” value ([M+H]+) is 186.3 Å². In the case of `CC(=O)OCC(=O)[C@@]1(O)CC[C@H]2[C@@H]3CCC4=CC(=O)CC[C@]4(C)[C@H]3[C@@H](O)C[C@@]21C` [HYDROCORTISONE ACETATE], where the note is “[M+H]+”, the “collision cross section (N2)” value came out at 196.1 Å². For the molecule `CN1[C@@H]2CC[C@H]1CC(OC(=O)[C@H](CO)c1ccccc1)C2` (stereo partly specified) [HYOSCYAMINE], the “collision cross section (N2)” value ([M+H]+) came to 169.7 Å². The same measure, in the same setting: as for `CC1Cc2ccccc2N1NC(=O)c1ccc(Cl)c(S(N)(=O)=O)c1` (stereo unspecified) [INDAPAMIDE], the figure is 184.6 Å². Still for that read-out and setting: as for `O=c1c(-c2cc(O)c(O)c(O)c2)coc2cc(O)c(O)c(O)c12` [IRIGENOL], the figure is 166.5 Å².

On to `CC(=O)OCC(=O)[C@@]1(O)CCC2C3CCC4=CC(=O)C=C[C@]4(C)[C@@]3(F)[C@@H](O)C[C@@]21C` (stereo partly specified) [ISOFLUPREDNONE ACETATE], for which, where the note is “[M+H]+”, the “collision cross section (N2)” value is listed as 194.7 Å².

With `NNC(=O)c1ccncc1` [ISONIAZID], the “collision cross section (N2)” value ([M+H]+) is reported as 125.6 Å². For the molecule `COc1cc(O)ccc1C(C)=O` [ISOPEONOL], the “collision cross section (N2)” value ([M+H]+) was found to be 128.6 Å².

For the molecule `COc1c2ccoc2c(OC)c2oc(=O)ccc12` [ISOPIMPINELLIN], the “collision cross section (N2)” value ([M+H]+) is listed as 146.5 Å². As to `COc1ccc(-c2coc3c(OC)c(OC)cc(O)c3c2=O)cc1` [ISOTECTORIGENIN, 7-METHYL ETHER], the “collision cross section (N2)” value ([M+H]+) is reported as 171.9 Å². For `C=C(C)[C@H]1CN[C@H](C(=O)O)[C@H]1CC(=O)O` [KAINIC ACID], the “collision cross section (N2)” value ([M+H]+) was 144.2 Å². For `CC1(C)C[C@@H]2C(=O)CC[C@H]3O[C@]3(C)CC[C@H]21` [KOBUSONE], the “collision cross section (N2)” value ([M+H]+) is given as 146.3 Å². Take `COc1ccc(-c2coc3cc(O)ccc3c2=O)c(O)c1O` [KOPARIN]: the “collision cross section (N2)” value ([M+H]+) turned out to be 162.1 Å². On to `COc1c(O)cc2c(-c3ccccc3)cc(=O)oc2c1OC` [KUHLMANNIN], for which the “collision cross section (N2)” value ([M+H]+) came to 165.6 Å². On to `CCCCS(=N)(=O)CC[C@H](N)C(=O)O` (stereo partly drawn) [L-BUTHIONINE SULFOXIMINE], for which the “collision cross section (N2)” value ([M+H]+) amounted to 146.1 Å². In the case of `O=C(O)[C@H](O)[C@@H](O)[C@H](O[C@@H]1O[C@H](CO)[C@H](O)[C@H](O)[C@H]1O)[C@H](O)CO` [LACTOBIONIC ACID], the “collision cross section (N2)” value ([M+H]+) was determined as 168.7 Å².

For `C[C@@H]1CC[C@H]2[C@](C)(CO)[C@@H](O)CC[C@]2(C)[C@@]12CC[C@@](CO)(CCO)O2` [LAGOCHILIN], for the setting “[M+H]+”, the “collision cross section (N2)” value worked out at 171.2 Å². Same read-out and setting: the figure for `Cc1occc(=O)c1O` [LARIXINIC ACID] is 117.7 Å²; for `C=C[C@@](C)(O)CCC1C(=C)C[C@H](O)C2C(C)(C)CCCC12C` (stereo partly specified) [LARIXOL] it is 176.2 Å²; for `CC1=CC(=O)C2=C(C)CC[C@@H]3[C@H](OC(=O)[C@H]3C)[C@@H]12` [LEUCODIN] it is 154.2 Å². For the molecule `N[C@@H](Cc1ccc(O)c(O)c1)C(=O)O` [LEVODOPA], the “collision cross section (N2)” value ([M+H]+) came out at 145.4 Å². In the case of `CC(C)(C#N)O[C@@H]1O[C@H](CO)[C@@H](O)[C@H](O)[C@H]1O` [LINAMARIN], for the setting “[M+Na]+”, the “collision cross section (N2)” value was found to be 157.3 Å².

With `CCOC(=O)N1CCC(=C2c3ccc(Cl)cc3CCc3cccnc32)CC1` [LORATADINE], the “collision cross section (N2)” value ([M+H]+) is reported as 185.8 Å².

`CC[C@H](C)C(=O)O[C@H]1C[C@@H](C)C=C2C=C[C@H](C)[C@H](CC[C@@H]3C[C@@H](O)CC(=O)O3)[C@H]21` [LOVASTATIN]: where the note is “[M+Na]+”, the “collision cross section (N2)” value was 202 Å². `C=C1C[C@H]2[C@@H]3C=C(C)C4=CC(=O)CC[C@]4(C)[C@H]3CC[C@]2(C)[C@@]1(OC(C)=O)C(C)=O` [MELENGESTROL ACETATE]: the “collision cross section (N2)” value ([M+H]+) was determined as 198.2 Å². On to `OC[C@H]1O[C@@](CO)(O[C@H]2O[C@H](CO)[C@@H](O)[C@H](O)[C@H]2O)[C@@H](O[C@H]2O[C@H](CO)[C@@H](O)[C@H](O)[C@H]2O)[C@@H]1O` [MELEZITOSE], for which the “collision cross section (N2)” value ([M+Na]+) was found to be 199.2 Å².

With `[O-][n+]1cccc(CO)c1` [MEPIROXOL], the “collision cross section (N2)” value ([M+H]+) is given as 120.4 Å².

For the molecule `Nc1ccc(O)c(C(=O)O)c1` [MESALAMINE], under “[M+H]+”, the “collision cross section (N2)” value is reported as 134.7 Å². On to `CN1C[C@H](CNC(=O)OCc2ccccc2)C[C@@H]2c3cccc4c3c(cn4C)C[C@H]21` [METERGOLINE], for which, where the note is “[M+H]+”, the “collision cross section (N2)” value is recorded as 197.6 Å².

With `C1N2CN3CN1CN(C2)C3` [METHENAMINE], the “collision cross section (N2)” value ([M+H]+) was found to be 126.8 Å². In the case of `COc1cc(C)c2c(=O)cc(-c3ccccc3)oc2c1` [METHOXYVONE], under “[M+H]+”, the “collision cross section (N2)” value is 156.5 Å². In the case of `COC(=O)CC[C@@H](C)[C@H]1CC[C@H]2[C@@H]3CC[C@@H]4C[C@H](O)CC[C@]4(C)[C@H]3C[C@H](O)[C@]12C` [METHYL DEOXYCHOLATE], for the setting “[M+Na]+”, the “collision cross section (N2)” value is 199.1 Å².

As for `Cc1cc(=O)[nH]c(=S)[nH]1` [METHYLTHIOURACIL], for the setting “[M+H]+”, the “collision cross section (N2)” value was 123.7 Å².

(Values after the C3SDB collision cross section collection.)
